Test results published in patent US20200261383A1, “PHARMACEUTICAL COMPOSITIONS” (KALVISTA PHARMACEUTICALS LIMITED, priority 2017, published 2020).

Experiments:
[1] = tested on: diabetic rats; conditions: cited from earlier work
[2] = Ocular pharmacokinetic study in monkey, intravitreal injection on Day 1, 29 and 57; type: in vivo, cynomolgus monkeys; conditions: monkeys; IVT 5 μg/eye Day 1, 29, 57; calculated post third dose, sampling interval Day 57-99
[3] = solution for injection; cited from earlier work

N=C(N)c1ccc(CNC(=O)c2cnn(Cc3ccccc3)c2)cc1 [ASP-440]
Retinal blood flow abnormalities [1]: ameliorated | Retinal vascular permeability [1]: ameliorated

CCOc1ccc(C[C@@H](NC(=O)c2ccccc2)C(=O)N[C@@H](Cc2ccccc2)C(=O)NCc2ccc(CN)cc2)cc1.Cl [Compound 1, N-[(R)-1-[(S)-1-(4-Aminomethyl-benzylcarbamoyl)-2-phenyl-ethylcarbamoyl]-2-(4-ethoxy-phenyl)-ethyl]-benzamide hydrochloride]
AUC0-last in Ocular Tissue, Aqueous Humor [2]: 1,410 ng · h/mL or ng · h/g | AUC0-last in Ocular Tissue, Choroid-Tissue [2]: 32,200 ng · h/mL or ng · h/g | AUC0-last in Ocular Tissue, Retina- Tissue [2]: 166,000 ng · h/mL or ng · h/g | AUC0-last in Ocular Tissue, Vitreous Humor [2]: 1,110 ng · h/mL or ng · h/g

Ecallantide
Safety in medical use [3]: risk of anaphylactic reactions
